Results reported in ChEMBL document CHEMBL1139966, “ERbeta ligands. Part 6: 6H-Chromeno[4,3-b]quinolines as a new series of estrogen receptor beta-selective ligands” (Bioorg Med Chem Lett, 2007).

Species on record: Homo sapiens
Test: Selectivity for human ERalpha over ERbeta

Ratio IC50	Structure (SMILES)
16	Oc1ccc2c(c1)OCc1c-2nc2ccc(O)cc2c1Br
4	Oc1ccc2c(c1)OCc1c-2nc2ccc(O)cc2c1-c1cccc(Cl)c1
6	COc1ccc(-c2c3c(nc4ccc(O)cc24)-c2ccc(O)cc2OC3)cc1
16	Oc1ccc2c(c1)OCc1c-2nc2ccc(O)cc2c1-c1ccc(C(F)(F)F)cc1
46	Oc1ccc(-c2cc(Cl)c3cc(O)ccc3n2)cc1
10	COc1cccc(-c2c3c(nc4ccc(O)cc24)-c2ccc(O)cc2OC3)c1
12	CCc1cc(-c2ccc(O)cc2)nc2ccc(O)cc12
20	C#Cc1cc(-c2ccc(O)cc2)nc2ccc(O)cc12
27	Oc1ccc2c(c1)OCc1c-2nc2ccc(O)cc2c1Cl
16	N#Cc1c2c(nc3ccc(O)cc13)-c1ccc(O)cc1OC2
24	C=Cc1c2c(nc3ccc(O)cc13)-c1ccc(O)cc1OC2
16	N#Cc1ccc(-c2c3c(nc4ccc(O)cc24)-c2ccc(O)cc2OC3)cc1
8	N#Cc1cccc(-c2c3c(nc4ccc(O)cc24)-c2ccc(O)cc2OC3)c1
12	C#Cc1c2c(nc3ccc(O)cc13)-c1ccc(O)cc1OC2
14	CCc1c2c(nc3ccc(O)cc13)-c1ccc(O)cc1OC2
15	Oc1ccc2c(c1)OCc1c-2nc2ccc(O)cc2c1-c1ccc(Cl)cc1
